The values that follow come from patent US11917959B2, “Multi-ear system to enhance monocot plant yield” (Monsanto Technology LLC, priority 2015, dated 2024).

Molecules are shown by their SMILES.

The subject of this test is diploid maize plant. Put plainly: Multibud induction in vitro, embryo axis method (Example 8). In kind it is in vivo. The protocol:
Seeds of a diploid maize plant were surface sterilized comprising immersion using standard methods of the art and then germinated in vitro in growth media. One of the resulting seedlings was dissected from its seed two days after germination (embryo axis method). The dissected axis was then subjected to a multibud induction treatment comprising transfer to fresh multibud induction media containing cytokinin in the form of 10 mg/L BAP. After seven days in the multibud bud induction media, the treated seedlings were transferred back to a hormone-free regeneration media. […] These multibuds were dissected from the mother plant and transferred to rooting media comprising IBA and IAA. After approximately one week, the multibud-derived plants were transplanted into 10 inch pots and allowed to grow in a greenhouse until it was clear that each autonomously-growing multibud-derived shoot had formed ears and tassels that nicked. Each ear was then pollinated from the tassel growing in the same pot and then all plants were allowed to grow in greenhouse conditions until seed set.

As for `c1ccc(CNc2ncnc3nc[nH]c23)cc1` [BAP, 6-Benzylaminopurine, N-(Phenylmethyl)-7H-pruin-6-amine], the “seed borne by ears of multibud-derived plants” value (10 mg/L BAP) was “dozens of seed each”. Further, the multibud formation result (10 mg/L BAP for seven days, after approximately twenty days) is listed as “induced multibuds could be seen growing from the nodal regions of the stem”.
